{"source": "patent US9485983B2", "about": "“Use of connexin channel inhibitors to protect grafts” (Universiteit Gent, priority 2012, dated 2016)", "type_in_all_cases": "cell-based", "key": {"[1]": {"system": "C6 glioma cells stably transfected with Cx43", "test": "TUNEL control experiment with staurosporine", "conditions": "2 μM, 6 hours"}, "[2]": {"system": "ECs and SMCs of saphenous veins", "test": "TUNEL apoptosis assay on cryopreserved/thawed human saphenous veins", "conditions": "for effect on number of TUNEL-positive cells (in words) / reduction of TUNEL-positive cell death counts (fraction): saphenous veins; for Protection relative to total number of cells (%) / Protection relative to total number of dead cells (%): Veins, Gap27 200 μM; for reduction of TUNEL-positive cell death counts (fraction): 200 μM during cryopreservation, thawing and DMSO washout", "description": "(§1) Tissue samples of human femoral artery and saphenous vein were obtained from deceased donors (age: 45±1.7 years) according to a protocol that was approved by the ethical committee of the University Hospital Ghent, Belgium. […] Exclusion criteria were: presence of ulcers, calcific atheromas, rupture of intima or media, traction lesions due to prelevation in arteries; signs of phlebitis, atheromatosis, parietal abnormalities, or lesions of intima in veins. The vessels were placed in HBSS-HEPES and prior to cryopreservation, DMSO (15%) was added. […] Grafts were cryopreserved at 1° C./minute in a −80° C. freezer and, after two weeks, stored for at least another two weeks in a liquid nitrogen container (−196° C.).\n(§2) For vessel analysis and cell death studies, tissues were thawed in a 37° C. water bath and kept on ice before the next steps. DMSO was then progressively washed out by a stepwise reduction of the DMSO concentration in the HBSS-HEPES solution. To that purpose, the blood vessels remained for 4 minutes in HBSS-HEPES solution with, respectively, 10%, 5%, 2.5% and 0% DMSO. In Gap27-treated vessels, the peptide (200 μM) was present during DMSO washout.\n(§3) After DMSO washout, vessels were embedded in paraffin. To this purpose, blood vessels were transferred to a neutral buffered 4% formalin solution for fixation during 24 hours and were then embedded in paraffin. Paraffin-embedded vessel specimens were cut into […] serial sections along a transverse plane and were then stained with hematoxylin and eosin for general inspection, immunostained for connexins to establish the expression of various connexin types in the blood vessels or stained for cell death (apoptosis) making use of in situ terminal TdT-mediated dUTP nick end-labeling (TUNEL) with the In Situ Cell Death Detection Kit (Roche, Vilvoorde, Belgium). After any of these staining procedures, images were taken on a Nikon TE300 inverted microscope using a ×10 or ×20 objective and equipped with a Nikon DS-Ri1 cooled color CCD camera (Nikon Belux, Brussels, Belgium).\n(§4) Embedded artery or vein sections were deparaffinized, rehydrated through graded alcohol, and permeabilized with 0.1% TRITON® X-100 at room temperature (8 minutes incubation). Slides were rinsed twice in a phosphate-buffered saline (PBS). Apoptosis was detected through in situ terminal deoxynucleotidyl transferase (TdT)-mediated deoxyuridine triphosphate (dUTP) nick end-labeling (TUNEL), using the In Situ Cell Death Detection Kit (Roche, Vilvoorde, Belgium). Slides were incubated with the TUNEL reaction mixture containing TdT and fluorescein-dUTP for 1 hour at 37° C.; thereafter, they were rinsed three times in PBS and mounted as described for immunostaining. […] TUNEL-stained blood vessel tissue sections were examined by epifluorescence microscopy as described for immunostaining. Four areas from each slide were examined and five slides per blood vessel were analyzed. The number of TUNEL-positive cells is given as a percentage of the total number of cells quantified from DAPI-positive counts."}, "[3]": {"system": "ECs and SMCs of femoral arteries", "test": "TUNEL apoptosis assay on cryopreserved/thawed human femoral arteries", "conditions": "for effect on number of TUNEL-positive cells (in words) / reduction of TUNEL-positive cell death counts (fraction): femoral arteries; for Protection relative to total number of cells (%) / Protection relative to total number of dead cells (%): Arteries, Gap27 200 μM; for reduction of TUNEL-positive cell death counts (fraction): 200 μM during cryopreservation, thawing and DMSO washout", "description": "as §1, §2, §3, §4"}, "bovine oocytes [4]": {"system": "bovine oocytes", "test": "Cleavage rate of vitrified/thawed COCs", "conditions": "Gap27-treated vitrified/thawed COCs; after 48 hours in culture", "description": "All procedures used were in accordance with the guidance principals for care and use of laboratory animals of the Laboratory Animal Ethical Commission of Ghent University. Bovine cumulus-oocyte complexes (COCs) were aspirated from ovaries collected at a local slaughterhouse. Immature COCs were recovered from the follicular fluid, washed two times in HEPES-TALP (see below under the heading “Pharmacological agents and solutions” of Materials and Methods), and matured for 22 hours in groups of 60 in […] of modified bicarbonate-buffered TCM199 (Gibco BRL, Life Technologies) supplemented with 20% heat-inactivated fetal calf serum (FCS; Sigma-Aldrich) at 38.5° C. in a humidified 5% CO2 incubator. Vitrification was performed in two steps: an equilibration (EQ) and a vitrification step (VS). Equilibration solution was composed of M199/Hanks/HEPES supplemented with 20% fetal calf serum (FCS)+7.5% ethylene glycol+7.5% DMSO. The vitrification solution contained: M199/Hanks/HEPES supplemented with 20% FCS+15% ethylene glycol, 15% DMSO and 0.5 M sucrose. […]\nTo determine the cleavage rate, zygotes were washed and placed in groups of 30 in […] droplets of synthetic oviduct fluid (composition see below under “Pharmacological agents and solutions”) supplemented with 5% FCS and cultured at 38.5° C. in 5% CO2, 5% O2, and 90% N2; cleavage rate was determined after 48 hours in culture."}, "[5]": {"system": "ECs and SMCs of femoral arteries", "test": "TUNEL apoptosis assay on cryopreserved/thawed human femoral arteries", "conditions": "femoral artery; Gap27 during cryopreservation/thawing only"}, "bovine oocytes [6]": {"system": "bovine oocytes", "test": "Fertilization rate of vitrified/thawed COCs", "conditions": "COCs vitrified/thawed in the presence of Gap27", "description": "All procedures used were in accordance with the guidance principals for care and use of laboratory animals of the Laboratory Animal Ethical Commission of Ghent University. Bovine cumulus-oocyte complexes (COCs) were aspirated from ovaries collected at a local slaughterhouse. Immature COCs were recovered from the follicular fluid, washed two times in HEPES-TALP (see below under the heading “Pharmacological agents and solutions” of Materials and Methods), and matured for 22 hours in groups of 60 in […] of modified bicarbonate-buffered TCM199 (Gibco BRL, Life Technologies) supplemented with 20% heat-inactivated fetal calf serum (FCS; Sigma-Aldrich) at 38.5° C. in a humidified 5% CO2 incubator. Vitrification was performed in two steps: an equilibration (EQ) and a vitrification step (VS). Equilibration solution was composed of M199/Hanks/HEPES supplemented with 20% fetal calf serum (FCS)+7.5% ethylene glycol+7.5% DMSO. The vitrification solution contained: M199/Hanks/HEPES supplemented with 20% FCS+15% ethylene glycol, 15% DMSO and 0.5 M sucrose. The COCs were washed by transferring them sequentially in three drops of 100 μl EQ solution (3 minutes residence in the first two drops and 6 minutes in the last drop) and then placed stepwise in five 100 μl drops VS solution (5 seconds in each drop except for the fifth that lasted 10 seconds). […]"}, "[7]": {"system": "ECs and SMCs of saphenous veins", "test": "TUNEL apoptosis assay on cryopreserved/thawed human saphenous veins", "conditions": "saphenous vein; Gap27 during cryopreservation/thawing only"}, "[8]": {"system": "cumulus cells of bovine COCs", "test": "TUNEL cell death of COCs after simulated transportation", "description": "COCs were fixed in neutral buffered 4% formalin solution after thawing. Fixed COCs were permeabilized with 0.1% TRITON® X-100 at room temperature (8-minute incubation). COCs were rinsed twice in a phosphate-buffered saline (PBS, see Pharmacological agents and solutions). Cell death was detected by in situ terminal deoxynucleotidyl transferase (TdT)-mediated deoxyuridine triphosphate (dUTP) nick end-labeling (TUNEL), using a commercial In Situ Cell Death Detection Kit (Roche, Vilvoorde, Belgium). COCs were incubated with the TUNEL reaction mixture containing TdT and fluorescein-dUTP for 1 hour at 37° C.; thereafter, they were rinsed three times in PBS and mounted with an antifade solution containing 4′,6-diamidino-2-phenylindole (DAPI) (Vectashield, Lab Consult) for nuclear staining. Slides were examined by epifluorescence microscopy using a Nikon TE300 inverted microscope with a ×10 objective and equipped with a Nikon DS-Ri1 cooled color CCD camera (Nikon Belux, Brussels, Belgium).\n[…] This was performed with or without Gap27 peptide (200 μM) present in the transportation phase medium. Afterward, cell death was evaluated via TUNEL assays as described before.\nTesting was performed as to whether Gap27 could improve COC viability upon inclusion in the media during a simulated transportation phase (5 hours total duration, see Materials and Methods) applied after the vitrification/thawing procedure. In these experiments, vitrification/thawing were done under control conditions and Gap27 was only present in the transportation medium."}, "[9]": {"system": "bovine cumulus-oocyte complexes (COCs)", "test": "TUNEL cell death assay on COCs after vitrification/thawing", "experimental": "Bovine cumulus-oocyte complexes (COCs) were aspirated from ovaries collected at a local slaughterhouse. Immature COCs were recovered from the follicular fluid, washed two times in HEPES-TALP (see below under the heading “Pharmacological agents and solutions” of Materials and Methods), and matured for 22 hours in groups of 60 in 500 mL of modified bicarbonate-buffered TCM199 (Gibco BRL, Life Technologies) supplemented with 20% heat-inactivated fetal calf serum (FCS; Sigma-Aldrich) at 38.5° C. in a humidified 5% CO2 incubator. Vitrification was performed in two steps: an equilibration (EQ) and a vitrification step (VS). Equilibration solution was composed of M199/Hanks/HEPES supplemented with 20% fetal calf serum (FCS)+7.5% ethylene glycol+7.5% DMSO. The vitrification solution contained: M199/Hanks/HEPES supplemented with 20% FCS+15% ethylene glycol, 15% DMSO and 0.5 M sucrose. The COCs were washed by transferring them sequentially in three drops of 100 μl EQ solution (3 minutes residence in the first two drops and 6 minutes in the last drop) and then placed stepwise in five 100 μl drops VS solution (5 seconds in each drop except for the fifth that lasted 10 seconds). The connexin channel inhibitor Gap27 was added to the fifth drop of VS solution at a final concentration of 200 μM (the Gap27 sequence is given below under the heading “Pharmacological agents and solutions” of Materials and Methods). The control condition consisted of a drop solution without any added Gap27. COCs were placed in a manufactured cryotop and transferred immediately to liquid nitrogen (−196° C.).\nAfter 24 hours' storage in liquid nitrogen, the COCs were thawed by transferring them to a warming solution at 37° C. composed of M199/Hanks/HEPES+20% FCS+1.25 M sucrose for 1 minute. This was followed by a three-step wash-out of the hyperosmolar sucrose (reduced from 1.25 M to 0.62, 0.31 and 0 M, respectively; duration of each wash was 3 minutes, 5 minutes and 5 minutes, respectively). In the Gap27 treatment condition, the peptide concentration was gradually diluted over these three washing steps, halving its concentration with each transfer step (reduced from 200 μM in cryopreservation solution to 100, 50 and 0 μM, respectively). In the text that follows, “thawing” denotes the combination of warming and wash out of the hyperosmolarity.\nCOCs were fixed in neutral buffered 4% formalin solution after thawing. Fixed COCs were permeabilized with 0.1% TRITON® X-100 at room temperature (8-minute incubation). […] Cell death was detected by in situ terminal deoxynucleotidyl transferase (TdT)-mediated deoxyuridine triphosphate (dUTP) nick end-labeling (TUNEL), using a commercial In Situ Cell Death Detection Kit (Roche, Vilvoorde, Belgium). […]"}, "[10]": {"conditions": "simulated transportation at 0° C., intact COCs"}, "[11]": {"conditions": "simulated transportation at 37° C., cumulus reduced to 1-5 cell layers"}, "[12]": {"conditions": "simulated transportation at 37° C., intact cumulus cloud"}, "[13]": {"conditions": "cumulus cells, Gap27 during vitrification/thawing"}}, "note": "Entries after “also recorded” stand apart in the source; their conditions may differ.", "data": [{"molecule": "CN[C@@H]1C[C@H]2O[C@@](C)([C@@H]1OC)n1c3ccccc3c3c4c(c5c6ccccc6n2c5c31)C(=O)NC4", "note": "[staurosporine, Staurosporine]", "values": [{"measurement": "TUNEL positivity (in words)", "setting": "[1]", "value": "massive TUNEL positivity"}]}, {"molecule": "Gap27 with a scrambled peptide sequence: scrambled Gap27 control peptide TFEPIRISITK [reference compound]", "values": [{"measurement": "effect on number of TUNEL-positive cells (in words)", "setting": "[2]; ECs and SMCs", "value": "no significant effects"}, {"measurement": "effect on number of TUNEL-positive cells (in words)", "setting": "[3]; ECs and SMCs", "value": "no significant effects"}]}, {"molecule": "Gap27: connexin mimetic peptide, connexin channel inhibitor, SRPTEKTIFII (SEQ ID NO:2) (listed as Homo sapiens)", "values": [{"measurement": "cleavage rate", "setting": "bovine oocytes [4]", "value": 28, "unit": "%"}, {"measurement": "effect on cell death (in words)", "setting": "[5]", "value": "larger and statistically significant protective effects"}, {"measurement": "fertilization rate", "setting": "bovine oocytes [6]", "value": 41.2, "unit": "%"}, {"measurement": "Protection relative to total number of cells (%)", "setting": "[2]; EC", "value": "12 ± 4 (n = 13) %"}, {"measurement": "Protection relative to total number of dead cells (%)", "setting": "[2]; EC", "value": "51 ± 8 (n = 13) %"}, {"measurement": "Protection relative to total number of cells (%)", "setting": "[2]; SMC", "value": "6 ± 2 (n = 13) %"}, {"measurement": "Protection relative to total number of dead cells (%)", "setting": "[2]; SMC", "value": "71 ± 6 (n = 13) %"}, {"measurement": "effect on cell death (in words)", "setting": "[2]; saphenous vein, ECs and SMCs, Gap27 during DMSO washout only", "value": "slightly (but non-significantly) reduced"}, {"measurement": "effect on number of TUNEL-positive cells (in words)", "setting": "[2]; ECs and SMCs", "value": "significantly reduced"}, {"measurement": "reduction of TUNEL-positive cell death counts (fraction)", "setting": "[2]; ECs", "value": "½"}, {"measurement": "reduction of TUNEL-positive cell death counts (fraction)", "setting": "[2]; SMCs", "value": "more than ½"}, {"measurement": "effect on cell death (in words)", "setting": "[7]", "value": "larger and statistically significant protective effects"}, {"measurement": "cell death of cumulus cells", "setting": "[8]; simulated transportation 5 hours at 37° C., intact cumulus cloud, Gap27 200 μM in transportation medium", "value": 13.8, "unit": "%"}, {"measurement": "cell death of cumulus cells", "setting": "[8]; [10]", "value": 2.82, "unit": "%"}, {"measurement": "reduction of the dead cell mass", "setting": "[8]; [10]", "value": "~53", "unit": "%"}, {"measurement": "rescue effect of the total cell mass", "setting": "[8]; [10]", "value": "~3.1", "unit": "%"}, {"measurement": "cell death of cumulus cells", "setting": "[8]; simulated transportation at 37° C., cumulus cell layer reduced to 1-5 cell layers", "value": 7.54, "unit": "%"}, {"measurement": "reduction of the dead cell mass", "setting": "[8]; [11]", "value": "~54", "unit": "%"}, {"measurement": "rescue effect of the total cell mass", "setting": "[8]; [11]", "value": "~8.7", "unit": "%"}, {"measurement": "reduction of the mass of dead cells", "setting": "[8]; [12]", "value": "~32", "unit": "%"}, {"measurement": "rescue effect relative to the total mass of cells", "setting": "[8]; [12]", "value": "~6.5", "unit": "%"}, {"measurement": "Protection relative to total number of cells (%)", "setting": "[3]; EC", "value": "11 ± 4 (n = 11) %"}, {"measurement": "Protection relative to total number of dead cells (%)", "setting": "[3]; EC", "value": "32 ± 8 (n = 11) %"}, {"measurement": "Protection relative to total number of cells (%)", "setting": "[3]; SMC", "value": "6 ± 3 (n = 11) %"}, {"measurement": "Protection relative to total number of dead cells (%)", "setting": "[3]; SMC", "value": "73 ± 7 (n = 11) %"}, {"measurement": "effect on number of TUNEL-positive cells (in words)", "setting": "[3]; ECs and SMCs", "value": "visibly reduced; also recorded: significantly reduced"}, {"measurement": "reduction of TUNEL-positive cell death counts (fraction)", "setting": "[3]; intimal layer (ECs)", "value": "more than ⅓"}, {"measurement": "reduction of TUNEL-positive cell death counts (fraction)", "setting": "[3]; medial layer (SMCs)", "value": "more than ⅔"}, {"measurement": "effect on cell death (in words)", "setting": "[3]; femoral artery, ECs and SMCs, Gap27 during DMSO washout only", "value": "slightly (but non-significantly) reduced"}, {"measurement": "cell death (TUNEL assay) of cumulus cells", "setting": "[9]; Gap27 200 μM during vitrification/thawing", "value": 1.68, "unit": "%"}, {"measurement": "cell death of the oocytes (in words)", "setting": "[9]; after vitrification/thawing, whatever the treatment", "value": "No cell death of the oocytes"}, {"measurement": "cell mass rescued (effect size relative to the total number of cells)", "setting": "[9]; [13]", "value": "~2.4", "unit": "%"}, {"measurement": "reduction relative to the total number of dead cells in control", "setting": "[9]; [13]", "value": "~59", "unit": "%"}]}]}
